Experimental data published in patent publication US20060089411A1, “Treatment of Stargardt's disease and other lipofuscin disorders with combined retinaldehyde inhibitor and zeaxanthin” (priority 2004, published 2006).

What was measured:
[1] = system: rabbit or bovine RPE cells; conditions: added to RPE cell cultures; high oxygen concentrations or intense blue light; Sundelin 2001, Shaban 2002, Nilsson 2003; cited from earlier work
[2] = people taking isotretinoin; decreased acuity under moderately dark conditions; cited from earlier work
[3] = system: ABCR −/− mice; conditions: mice with genetically engineered ABCR −/− gene defect; Radu et al 2003, US 2003/032,078; cited from earlier work
[4] = system: RPE65; conditions: Gollapalli et al 2004; cited from earlier work
Chain of RPE65 (Q16518 whole entry, species assumed): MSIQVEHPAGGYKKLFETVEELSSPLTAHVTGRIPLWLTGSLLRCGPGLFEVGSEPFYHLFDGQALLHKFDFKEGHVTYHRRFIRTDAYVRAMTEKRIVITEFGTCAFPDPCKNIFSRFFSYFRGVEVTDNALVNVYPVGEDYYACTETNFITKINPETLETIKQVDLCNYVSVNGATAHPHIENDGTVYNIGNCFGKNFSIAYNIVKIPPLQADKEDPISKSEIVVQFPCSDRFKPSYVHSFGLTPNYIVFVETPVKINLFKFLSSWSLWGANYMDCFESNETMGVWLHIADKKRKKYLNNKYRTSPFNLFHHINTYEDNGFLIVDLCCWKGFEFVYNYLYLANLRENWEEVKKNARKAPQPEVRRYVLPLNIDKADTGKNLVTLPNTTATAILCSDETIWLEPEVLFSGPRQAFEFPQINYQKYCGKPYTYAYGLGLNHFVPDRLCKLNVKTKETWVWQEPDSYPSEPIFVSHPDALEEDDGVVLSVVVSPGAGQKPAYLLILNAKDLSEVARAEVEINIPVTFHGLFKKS

[5] = system: short chain dehydrogenase enzyme that converts 11-cis-retinol into 11-cis-retinal; conditions: Radu et al 2003; cited from earlier work
[6] = Laser-verteporfin photodynamic therapy in a patient with wet macular degeneration who was taking zeaxanthin; type: in vivo, human; conditions: one patient, zeaxanthin 20 milligrams per day for several months before treatment
Text: Additional insights arose from a fortuitous event involving an elderly acquaintance of the Applicant, who was taking zeaxanthin and who decided to have a treatment known as “photodynamic therapy”, which uses a laser to convert a drug called verteporfin into a toxin that will kill and seal newly-growing blood vessels in the retina. The patient's doctor, who is regarded as one of the world's foremost experts in treating macular degeneration, advised the patient to stop taking zeaxanthin before the laser treatment, because (in the physician's opinion) it likely would not help, and it might interfere with the laser treatment. That advice was entirely consistent with the packaging information that accompanies verteporfin, which states that carotenoids should be avoided before treatment, since they may interfere with the treatment.
That discovery and invention arose from an event involving a personal acquaintance of the Inventor. That person was suffering from the “wet” or “exudative” form of macular degeneration, which involves abnormal and aggressive blood vessel growth in and behind the macula. They decided to have a treatment known as “photodynamic therapy”, which uses a laser that is shone directly into the eye of a patient who has been anesthetized. […]

[7] = high dosage, people with risk factors such as smoking; cited from earlier work

Row | Molecule | cell toxicity [1] | formation of lipofuscin [1] | further results
1 | Vitamin E | helped suppress cell toxicity | helped suppress cell toxicity and the formation of lipofuscin | 
2 | CC1=C[C@H](O)CC(C)(C)[C@H]1/C=C/C(C)=C/C=C/C(C)=C/C=C/C=C(C)/C=C/C=C(C)/C=C/C1=C(C)C[C@@H](O)CC1(C)C [lutein] | helped suppress cell toxicity | helped suppress cell toxicity and the formation of lipofuscin | 
3 | CC(C)=CCC/C(C)=C/C=C/C(C)=C/C=C/C(C)=C/C=C/C=C(C)/C=C/C=C(C)/C=C/C=C(\C)CCC=C(C)C [lycopene] | helped suppress cell toxicity | helped suppress cell toxicity and the formation of lipofuscin | 
4 | CC1=C(/C=C/C(C)=C/C=C/C(C)=C\C(=O)O)C(C)(C)CCC1 [isotretinoin, 13-cis-retinoic acid] |  |  | vision side effect [2]: night blindness; accumulation of lipofuscin in the retinas [3]: can help slow and reduce the accumulation of lipofuscin; inhibition of RPE65 [4]: inhibit at least two different enzymes involved in vision; inhibition of short chain dehydrogenase [5]: inhibit at least two different enzymes involved in vision
5 | O=C1O[C@H]([C@@H](O)CO)C(O)=C1O [Vitamin C] |  | helped suppress cell toxicity and the formation of lipofuscin | 
6 | CC1=C(/C=C/C(C)=C/C=C/C(C)=C/C=C/C=C(C)/C=C/C=C(C)/C=C/C2=C(C)C[C@@H](O)CC2(C)C)C(C)(C)C[C@H](O)C1 [zeaxanthin, 3R,3′R-zeaxanthin] | helped suppress cell toxicity | helped suppress cell toxicity and the formation of lipofuscin | results of the laser-verteporfin treatment [6]: much better than anyone had expected
7 | CC1=C(/C=C/C(C)=C/C=C/C(C)=C/C=C/C=C(C)/C=C/C=C(C)/C=C/C2=C(C)CCCC2(C)C)C(C)(C)CCC1 [beta-carotene] |  |  | rates and risks of lung cancer [7]: actually increases the rates and risks of lung cancer
